Columns and labels:
HeLa (cervical cancer) = assay: MTT cell viability assay, HeLa; type: cell-based; details: Homo sapiens
Procedure: All chemicals, if not stated otherwise, were obtained from Sigma-Aldrich (St. Louis, MO, USA). The MCF-7 and HeLa cell lines were purchased from Cell Lines Services (Eppelheim, Germany), the HCT-116 cell line was purchased from ATCC (ATCC-No: CCL-247). Cells were cultured in Dulbecco’s modified Eagle’s medium (DMEM) supplemented with 10% fetal bovine serum, 2 mM glutamine, 100 units/cm^3 penicillin, and 100 μg/cm^3 streptomycin. Cultures were maintained in a humidified atmosphere with 5% CO2 at 37 °C in an incubator (Heraceus, HeraCell).
Cell viability was determined using the MTT (3-(4,5-dimethylthiazol-2-yl)-2,5-diphenyltetrazolium bromide) assay. Cells were seeded in 96-well plates at a density of 5 × 10^3 cells/well and treated for 72 h with the examined compounds in the concentration range 1–100 μM (1, 10, 25, 50, and 100 μM). Following treatment, MTT (0.5 mg/cm^3) was added to the medium and cells were further incubated for 2 h at 37 °C. Cells were lysed with DMSO and the absorbance of the formazan solution was measured at 550 nm with a plate reader (Victor, 1420 multilabel counter). […] The experiment was performed in triplicate. Values are expressed as the mean ± SD of at least three independent experiments.

[1] = Metabolic stability in human liver microsomes with NADPH; type: in vitro ADME; details: pooled human liver microsomes, pH 7.4, human liver microsomes 0.5 mg/cm^3, NADPH 1 mM, 10 μM compound, 37 °C, read-out: in vitro metabolic half-life t1/2
Procedure: Selected derivatives were submitted to metabolic stability study to assess their ability to remain unchanged in the presence of human metabolic enzymes. Human liver microsomes were used as they are a rich source of all common CYP isoenzymes. In vitro incubations were performed in the presence of NADPH as a cofactor and the disappearance of a derivative was followed using LC–MS technique. The in vitro metabolic half-life values are gathered in Fig. 3.
Stock solutions of studied compounds were prepared at concentration of 10 mM in DMSO. […] Incubation mixture contained 10 μM of a studied derivative, 1 mM of NADPH (Sigma-Aldrich) and 0.5 mg/cm^3 of pooled human liver microsomes (HLM, Sigma-Aldrich) in potassium phosphate buffer (0.1 M, pH 7.4). Incubation was carried out in thermostat at 37 °C and started by addition of studied compound. 50 mm^3 samples were taken at starting point and after 5, 15, 30, 45, and 60 min. Enzymatic reaction was terminated by the addition of the equal volume of ice-cold acetonitrile. Incubations were performed in triplicates, the average t1/2 and standard deviation was calculated. Control incubations were performed without NADPH to assess chemical instability. After collection, samples were immediately centrifuged (10 min, 10,000 rpm) and resulted supernatant was directly analyzed or kept in − 80 °C until LC–MS analysis. Natural logarithm of a compound over IS peak area ratio was plotted versus incubation time. Metabolic half-time (t1/2) was calculated from the slope of the linear regression.
LC–MS analysis was performed on an Agilent 1260 system coupled to SingleQuad 6120 mass spectrometer (Agilent Technologies, Santa Clara, CA, USA). Poroshell EC-C18 (2.1 mm × 150 mm, 2.7 μm, Agilent Technologies, Santa Clara, CA, USA) was used in reversed-phase mode with gradient elution starting with 5% of phase A (10 mM ammonium formate in water) and 95% of phase B (10 mM ammonium formate in acetonitrile–water mixture, 95:5 v/v). […] Total analysis time was 15 min at 40 °C, flow rate was 1 cm^3/min and the injection volume was 5 mm^3. The mass spectrometer was equipped with electrospray ion source and operated in positive ionization. Mass analyzer was set individually to each compound to detect [M+H]^+ protonated molecule. MSD parameters of the ESI source were as follows: nebulizer pressure 35 psig (N2), drying gas […] (N2), drying gas temperature 300 °C, capillary voltage 3 kV, fragmentor voltage 150 V.

UO-31 = assay: NCI-60 single dose screen, UO-31; type: cell-based; details: Homo sapiens, Renal cancer, single concentration 10^−5 M, read-out: IGP (inhibition growth percent) UO-31
Procedure: Aside from above, compounds 9–14 and 17–24 were also submitted to National Cancer Institute and evaluated for the cytotoxic effects toward 60 cell lines at a single dose of 10 μM (Table 2). […] As it was summarized in Table 2, leukemia RPMI-8226 and NSCLC A549/ATCC were most sensitive to compounds 18, 22, and 24. These derivatives in 10 μM concentration inhibited the growth of approximately 50% cells belonging to the above mention cell lines.
Cytotoxicity evaluation of compounds 9–14 and 17–24 was performed at the National Cancer Institute according to NCI-60 DTP human tumor cell line screen procedure.

[2] = Table 4, repeats Table 1 values without SD and unit

IC50 (HeLa (cervical cancer); MTT, 72 h, mean ± SD) [µM]	IC50 (HeLa (cervical cancer); [2]) [µM]	half-life at 10 μM [1] [min]	SMILES	inhibition at 10 µM (UO-31) [%]
46 ± 2	46	11.2	O=C(Nc1ccccc1)c1cc(S(=O)(=O)Nc2nc(-c3ccccc3)c3ccccc3n2)c(SCc2ccccc2)cc1Cl [Compound 18, 2-Benzylthio-4-chloro-5-phenylcarbamoyl-N-(4-phenylquinazolin-2-yl)benzenesulfonamide]	3
42 ± 0.5	42	67.2	O=C(Nc1ccc(Cl)cc1)c1cc(S(=O)(=O)Nc2nc(-c3ccccc3)c3ccccc3n2)c(SCc2ccccc2)cc1Cl [Compound 22, 2-Benzylthio-4-chloro-5-(4-chlorophenylcarbamoyl)-N-(4-phenylquinazolin-2-yl)benzenesulfonamide]	35
44 ± 3	–	42.3	Cc1ccc(NC(=O)c2cc(S(=O)(=O)Nc3nc(-c4ccccc4)c4ccccc4n3)c(SCc3ccccc3)cc2Cl)cc1 [Compound 24, 2-Benzylthio-4-chloro-5-(4-methylphenylcarbamoyl)-N-(4-phenylquinazolin-2-yl)benzenesulfonamide]	25

Reference: article PMC6133092, “Synthesis of 2-alkylthio-N-(quinazolin-2-yl)benzenesulfonamide derivatives: anticancer activity, QSAR studies, and metabolic stability” (Monatshefte Fur Chemie, 2018)
